Experiment [1] deals with E. coli S30 extract (bacterial protein synthesis). Briefly: E. coli S30 extract coupled transcription-translation luciferase assay (inhibition of bacterial protein synthesis). Type of experiment: biochemical. The settings on record: % inhibition @ 1 μM, read-out: S30 IC50 (μM/% inhib.). In outline:
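Coupled transcription-translation in E. coli S30 circular-DNA extract expressing luciferase from pBESTluc, with 8-point 2-fold compound dilutions; 1 hour at 37 °C, stopped at 4 °C. Luminescence read; % inhibition versus no-inhibitor wells, no-DNA wells as background.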

Experiment [2] addresses Rabbit Reticulocyte Lysate (eukaryotic protein synthesis). The experiment in a line: Rabbit reticulocyte lysate luciferase assay (inhibition of eukaryotic protein synthesis). The experiment is classed as biochemical. The following applies: % inhibition @ 1 μM, read-out: Rabbit reticulocyte IC50 (μM/% inhib.). In outline: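 In vitro translation of luciferase control RNA in nuclease-treated rabbit reticulocyte lysate with amino acid mixture, compounds in 2-fold serial dilution, 90 minutes at 30° C. Luminescence read after luciferase reagent; % inhibition relative to water no-inhibitor controls, with no-RNA background wells.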

Experiment [3] has as its system A. baumannn (Ab). The experiment in a line: Broth microdilution minimum inhibitory concentration (MIC), CLSI. Type of experiment: cell-based. The following applies: A. baumannn; growth medium with sodium bicarbonate; read-out: Ab + bicarb MIC. In outline: (§1)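 Two-fold serial dilutions in CAMHB, optionally with sodium bicarbonate (6.25 or 25 mM final) or heat-inactivated human serum (0-50%), 8 concentrations, triplicate. Inoculum 5×10^4 CFU/well from log-phase cultures grown at 35±2 °C to 0.5 McFarland.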
A general note: Dilution methods test growth across graded concentrations, often in twofold steps.

In experiment [4] the test system is E. coli (Ec). The description is as above. Type of experiment: cell-based. The settings on record: Escherichia coli, growth medium with sodium bicarbonate, read-out: E. coli + bicarb MIC. The gist of the method:
as §1

For experiment [5], the system named is E. faecalis (Ef). The experiment is described as above. Type of experiment: cell-based. The following applies: Enterococcus faecalis, growth medium with sodium bicarbonate, read-out: Ef + bicarb MIC. In outline:
as §1

The test system of experiment [6] is P. aeruginosa (Pa). The experiment is described as above. The settings on record: Pseudomonas aeruginosa, growth medium with sodium bicarbonate, read-out: Pa MIC + bicarb. The experiment is classed as cell-based. The gist of the method:
as §1

In experiment [7] the test system is S. aureus (Sa). Described as above. Type of experiment: cell-based. The settings on record: Staphylococcus aureus, growth medium with sodium bicarbonate, read-out: Sa + bicarb MIC. The gist of the method: as §1

Usually MIC stands for the lowest concentration that inhibits growth of the organism. For `CCN(Cc1ccc(-n2ccc(NC(=O)N3CCN(C(=O)C(C)(C)N)CC3)nc2=O)cc1)C12CC(N)(C1)C2` [Compound 170], the results for the IC50 in experiment [1] and in experiment [2] were less than 0.5 µM and not below 1 µM, respectively. Besides, the MIC is more than 32 µg/mL in experiment [3]; less than 8 µg/mL in experiment [4]; more than 32 µg/mL in experiment [5]; more than 32 µg/mL in experiment [6]; more than 32 µg/mL in experiment [7].

Regarding `CC(C)(N)C(=O)N1CCN(C(=O)Nc2ccn(-c3ccc(CNC45CC(N)(C4)C5)cc3)c(=O)n2)CC1` [Compound 171], the IC50 in experiment [1] and in experiment [2] was not below 1 µM in each case. Also, the MIC in experiment [3] is more than 32 µg/mL; in experiment [4] it was 8 to 32 µg/mL; in experiment [5], more than 32 µg/mL; in experiment [6], more than 32 µg/mL; in experiment [7], more than 32 µg/mL.

Take `CCN(Cc1ccc(-n2ccc(NC(=O)N3CCN(C(=O)C(C)(C)N)CC3)nc2=O)cc1)C12CCC(N)(CC1)CC2` [Compound 172]: the IC50 was less than 0.5 µM in experiment [1] and not below 1 µM in experiment [2]. Besides, the MIC in experiment [3] was 8 to 32 µg/mL; in experiment [4], less than 8 µg/mL; in experiment [5] it was less than 8 µg/mL; in experiment [6] it was more than 32 µg/mL; in experiment [7], less than 8 µg/mL.

As to `CC(C)(N)C(=O)N1CCN(C(=O)Nc2ccn(-c3ccc(CNC45CC(CN)(C4)C5)cc3)c(=O)n2)CC1` [Compound 173], the IC50 in experiment [1] and in experiment [2] was not below 1 µM throughout. Moreover, the MIC in experiment [3] is more than 32 µg/mL; in experiment [4] it was less than 8 µg/mL; in experiment [5], more than 32 µg/mL; in experiment [6] it was more than 32 µg/mL; in experiment [7], more than 32 µg/mL.

For the molecule `CN(Cc1ccc(-n2ccc(NC(=O)N3CCN(C(=O)C(C)(C)N)CC3)nc2=O)cc1)C12CC(CN)(C1)C2` [Compound 174], the IC50 in experiment [1] and in experiment [2] was not below 1 µM in each case. Moreover, the MIC in experiment [3] was more than 32 µg/mL; in experiment [4], less than 8 µg/mL; in experiment [5], 8 to 32 µg/mL; in experiment [6] it was more than 32 µg/mL; in experiment [7] it was less than 8 µg/mL.

As for `CCN(Cc1ccc(-n2ccc(NC(=O)N3CCN(C(=O)C(C)(C)N)CC3)nc2=O)cc1)C12CC(CN)(C1)C2` [Compound 175], the IC50 in experiment [1] and in experiment [2] was not below 1 µM in each case. The MIC is more than 32 µg/mL in experiment [3]; less than 8 µg/mL in experiment [4]; less than 8 µg/mL in experiment [5]; more than 32 µg/mL in experiment [6]; less than 8 µg/mL in experiment [7].

For the molecule `CC(Cc1ccc(-n2ccc(NC(=O)N3CCN(C(=O)C(C)(C)N)CC3)nc2=O)cc1)NC1CC2(CC(N)C2)C1` (stereo not shown) [Compound 176], the IC50 in experiment [1] and in experiment [2] was not below 1 µM throughout. Also, the minimum inhibitory concentration (MIC) is more than 32 µg/mL in experiment [3]; less than 8 µg/mL in experiment [4]; 8 to 32 µg/mL in experiment [5]; more than 32 µg/mL in experiment [6]; less than 8 µg/mL in experiment [7].

On to `CC(C)(N)C(=O)N1CCN(C(=O)Nc2ccn(-c3ccc(CCNC4CC5(CC(N)C5)C4)cc3)c(=O)n2)CC1` (stereo not shown) [Compound 177], for which the IC50 in experiment [1] and in experiment [2] was not below 1 µM each time. The minimal inhibitory concentration (MIC) in experiment [3] was more than 32 µg/mL; in experiment [4], less than 8 µg/mL; in experiment [5], 8 to 32 µg/mL; in experiment [6] it was more than 32 µg/mL; in experiment [7], less than 8 µg/mL.

As for `CC(C)(N)C(=O)N1CCN(C(=O)Nc2ccn(-c3ccc(C[C@H](N)NN4C[C@@H]5[C@@H](N)[C@@H]5C4)cc3)c(=O)n2)CC1` [Compound 178], the IC50 in experiment [1] and in experiment [2] was not below 1 µM throughout. Moreover, the minimal inhibitory concentration (MIC) in experiment [3], in experiment [4], in experiment [5], in experiment [6] and in experiment [7] was more than 32 µg/mL in each case.

As to `CC(C)(N)C(=O)N1CCN(C(=O)Nc2ccn(-c3ccc(CCCN4C[C@@H]5[C@@H](N)[C@@H]5C4)cc3)c(=O)n2)CC1` [Compound 179], the IC50 in experiment [1] and in experiment [2] was not below 1 µM in each case. For the same molecule, the MIC in experiment [3] is more than 32 µg/mL; in experiment [4], 8 to 32 µg/mL; in experiment [5], more than 32 µg/mL; in experiment [6] it was more than 32 µg/mL; in experiment [7], less than 8 µg/mL.

On to `CC(C)(N)C(=O)N1CCN(C(=O)Nc2ccn(-c3ccc(CCCN4CCC5(CC4)CC(N)C5)cc3)c(=O)n2)CC1` [Compound 180], for which the IC50 in experiment [1] and in experiment [2] was not below 1 µM throughout. Besides, the minimal inhibitory concentration (MIC) is more than 32 µg/mL in experiment [3]; less than 8 µg/mL in experiment [4]; more than 32 µg/mL in experiment [5]; more than 32 µg/mL in experiment [6]; 8 to 32 µg/mL in experiment [7].

Consider `CC(COc1ccc(-n2ccc(NC(=O)N3CCN(C(=O)C(C)(C)N)CC3)nc2=O)cc1)N1CC2(CC(N)C2)C1` (stereo not shown) [Compound 181], for which the IC50 was 0.5 to 1 µM in experiment [1] and not below 1 µM in experiment [2]. The minimum inhibitory concentration (MIC) in experiment [3] is more than 32 µg/mL; in experiment [4], less than 8 µg/mL; in experiment [5], less than 8 µg/mL; in experiment [6], more than 32 µg/mL; in experiment [7] it was less than 8 µg/mL.

As to `CC(C)(N)C(=O)N1CCN(C(=O)Nc2ccn(-c3ccc(C[C@H](N)C(=O)N4C[C@@H]5[C@@H](CN)[C@@H]5C4)cc3)c(=O)n2)CC1` [Compound 182], the IC50 in experiment [1] and in experiment [2] was not below 1 µM in each case. The minimal inhibitory concentration (MIC) in experiment [3], in experiment [4], in experiment [5], in experiment [6] and in experiment [7] was more than 32 µg/mL each time.

For `CC(C)(N)C(=O)N1CCN(C(=O)Nc2ccn(-c3ccc(C[C@H](N)C(=O)N4CC5CC5(CN)C4)cc3)c(=O)n2)CC1` (stereo partly shown) [Compound 183], the IC50 in experiment [1] and in experiment [2] was not below 1 µM throughout. Also, the MIC in experiment [3], in experiment [4], in experiment [5], in experiment [6] and in experiment [7] was more than 32 µg/mL each time.

Consider `CC(C)(N)C(=O)N1CCN(C(=O)Nc2ccn(-c3ccc(CCCN4CC5CC5(CN)C4)cc3)c(=O)n2)CC1` (stereo not shown) [Compound 184], for which the IC50 in experiment [1] and in experiment [2] was not below 1 µM throughout. The minimum inhibitory concentration (MIC) in experiment [3] was more than 32 µg/mL; in experiment [4], less than 8 µg/mL; in experiment [5] it was 8 to 32 µg/mL; in experiment [6], more than 32 µg/mL; in experiment [7], less than 8 µg/mL.

`CC(C)(N)C(=O)N1CCN(C(=O)Nc2ccn(-c3ccc(CCCN4C[C@@H]5[C@@H](CN)[C@@H]5C4)cc3)c(=O)n2)CC1` [Compound 185]: the IC50 in experiment [1] and in experiment [2] was not below 1 µM each time. Further, the minimal inhibitory concentration (MIC) is more than 32 µg/mL in experiment [3]; less than 8 µg/mL in experiment [4]; 8 to 32 µg/mL in experiment [5]; more than 32 µg/mL in experiment [6]; less than 8 µg/mL in experiment [7].

`CC(CN1C[C@@H]2[C@@H](CN)[C@@H]2C1)Oc1ccc(-n2ccc(NC(=O)N3CCN(C(=O)C(C)(C)N)CC3)nc2=O)cc1` (stereo partly shown) [Compound 186]: the IC50 in experiment [1] was less than 0.5 µM; in experiment [2], not below 1 µM. Moreover, the minimal inhibitory concentration (MIC) in experiment [3] is 8 to 32 µg/mL; in experiment [4], less than 8 µg/mL; in experiment [5] it was less than 8 µg/mL; in experiment [6], more than 32 µg/mL; in experiment [7], less than 8 µg/mL.

As to `CC(C)(N)C(=O)N1CCN(C(=O)Nc2ccn(-c3ccc(OCCN4C[C@@H]5[C@@H](CN)[C@@H]5C4)cc3)c(=O)n2)CC1` [Compound 187], the IC50 is less than 0.5 µM in experiment [1] and not below 1 µM in experiment [2]. Also, the MIC in experiment [3] was 8 to 32 µg/mL; in experiment [4] it was less than 8 µg/mL; in experiment [5], less than 8 µg/mL; in experiment [6], 8 to 32 µg/mL; in experiment [7] it was less than 8 µg/mL.

`CC(COc1ccc(-n2ccc(NC(=O)N3CCN(C(=O)C(C)(C)N)CC3)nc2=O)cc1)N1C[C@@H]2[C@@H](CN)[C@@H]2C1` (stereo partly shown) [Compound 188]: the values for the IC50 in experiment [1] and in experiment [2] were less than 0.5 µM and not below 1 µM, respectively. In addition, the MIC in experiment [3] is 8 to 32 µg/mL; in experiment [4], less than 8 µg/mL; in experiment [5], less than 8 µg/mL; in experiment [6], 8 to 32 µg/mL; in experiment [7] it was less than 8 µg/mL.

As for `CC(COc1ccc(-n2ccc(NC(=O)N3CCN(C(=O)C(C)(C)N)CC3)nc2=O)cc1)N1CC2CC2(CN)C1` (stereo not shown) [Compound 189], the values for the IC50 in experiment [1] and in experiment [2] were less than 0.5 µM and not below 1 µM, respectively. For the same molecule, the MIC in experiment [3] is more than 32 µg/mL; in experiment [4], less than 8 µg/mL; in experiment [5], less than 8 µg/mL; in experiment [6] it was more than 32 µg/mL; in experiment [7] it was less than 8 µg/mL.

Take `CC(C)(N)C(=O)N1CCN(C(=O)Nc2ccn(-c3ccc(CNC[C@@H]4[C@H]5CNC[C@@H]45)cc3)c(=O)n2)CC1` [Compound 190]: the figures for the IC50 in experiment [1] and in experiment [2] were less than 0.5 µM and not below 1 µM, respectively. Besides, the MIC in experiment [3] is more than 32 µg/mL; in experiment [4] it was less than 8 µg/mL; in experiment [5], 8 to 32 µg/mL; in experiment [6], more than 32 µg/mL; in experiment [7], less than 8 µg/mL.

On to `CC(Cc1ccc(-n2ccc(NC(=O)N3CCN(C(=O)C(C)(C)N)CC3)nc2=O)cc1)N(C)C1CC2(CC(N)C2)C1` (stereo not shown) [Compound 191], for which the IC50 in experiment [1] and in experiment [2] was not below 1 µM throughout. Further, the MIC was 8 to 32 µg/mL in experiment [3]; less than 8 µg/mL in experiment [4]; less than 8 µg/mL in experiment [5]; 8 to 32 µg/mL in experiment [6]; less than 8 µg/mL in experiment [7].
